According to patent publication US6797731B2, “Resorcinol derivatives” (Pfizer Inc., priority 2000, dated 2004):

Molecular target: T1, human tyrosinase (Homo sapiens, UniProt P14679)
T1 construct: endogenous in cells; host or cells: SKMEL 188 human melanoma cell line (lysate)
T1 sequence (P14679 19-529): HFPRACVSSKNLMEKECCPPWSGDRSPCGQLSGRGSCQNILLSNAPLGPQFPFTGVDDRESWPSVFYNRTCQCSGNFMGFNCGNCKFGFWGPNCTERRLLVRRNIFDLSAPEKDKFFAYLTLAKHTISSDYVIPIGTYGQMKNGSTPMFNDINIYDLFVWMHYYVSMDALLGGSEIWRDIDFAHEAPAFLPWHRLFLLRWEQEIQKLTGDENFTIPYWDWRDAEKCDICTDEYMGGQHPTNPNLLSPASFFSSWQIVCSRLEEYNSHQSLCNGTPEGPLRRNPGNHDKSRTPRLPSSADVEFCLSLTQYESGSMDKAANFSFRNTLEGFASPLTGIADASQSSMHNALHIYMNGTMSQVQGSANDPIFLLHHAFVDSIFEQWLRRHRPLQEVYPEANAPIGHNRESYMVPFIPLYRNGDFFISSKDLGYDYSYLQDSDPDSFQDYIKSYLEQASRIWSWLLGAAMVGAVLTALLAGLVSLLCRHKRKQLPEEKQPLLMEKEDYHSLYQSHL
Assay: Tyrosinase (DOPA oxidase) assay using cell lysate
Assay type: biochemical
Details: SKMEL 188 cell lysates; L-DOPA 100 μg/ml; incubated 8 hrs; read at 405 nm
Method: 1. Tyrosinase (DOPA Oxidase) Assay Using Cell Lysate:
Human melanoma cell line, SKMEL 188 (licensed from Memorial Sloan-Kettering), is used in the cell lysate assay and the screen. In the assay, compounds and L-dihydroxyphenylalanine (L-DOPA) (100 μg/ml) are incubated with the cell lysates containing human tyrosinase for 8 hrs before the plates are read at 405 nm.

N[C@H](Cc1ccccc1)C(=O)O[C@H]1CC[C@H](c2ccc(O)cc2O)CC1 [Example 22, trans-4-(2,4-Dihydroxyphenyl)cyclohexyl (2R)-2-amino-3-phenylpropanoate]
IC50: ~2 µM
